Where a name gives a salt, the structure may show the parent alone.
test system: H77/JFH-1 chimeric HCVcc; test: HCV cell culture (HCVcc) model, Renilla luciferase; assay type: cell-based; conditions: H77/JFH-1 HCVcc, Huh 7.5 cells, Renilla luciferase 72 hours post-infection

Row | Compound | EC50
1 | C[C@@]1(O)[C@H](O)[C@@H](CO)O[C@H]1n1cnc2c(N)ncnc21 [Compound 2-CMA] | 92 nM

test system: not given; test: not given; conditions: not given

Row | melting point | Compound
2 | 170 to 172 °C | Fc1ccc(CNc2nc(OCC(F)(F)F)nc(-c3ccccc3)n2)cc1
3 | 105 to 107 °C | Fc1ccc(CNc2nc(NCc3ccccc3F)nc(OCC(F)(F)F)n2)cc1
4 | 107 to 109 °C | Fc1ccc(CNc2nc(OCC(F)(F)F)nc(Oc3cccc(C(F)(F)F)c3)n2)cc1
5 | 101 to 103 °C | Fc1ccc(CNc2nc(OCc3ccccc3)nc(OCC(F)(F)F)n2)cc1
6 | 98 to 99 °C | CC(C)N1CCC(Nc2nc(NCc3ccc(F)cc3)nc(OCC(F)(F)F)n2)C1 (stereo not shown)
7 | 115 to 117 °C | CCOc1nc(NCc2ccco2)nc(N2CCN(Cc3ccccn3)CC2)n1
8 | 116 to 118 °C | Cc1ccc(CNc2nc(OCC(F)(F)F)nc(Oc3cccc(C(F)(F)F)c3)n2)o1
9 | 80 to 83 °C | Oc1ccc(Nc2nc(NCc3ccco3)nc(Oc3ccc(O)cc3)n2)cc1
10 | 148 to 150 °C | Fc1ccc(CNc2nc(Nc3cccc(Cl)c3)nc(OCC(F)(F)F)n2)cc1
11 | 124 to 126 °C | FC(F)(F)c1cccc(Nc2nc(NCc3ccco3)nc(OCc3ccncc3)n2)c1
12 | 266 to 268 °C | Oc1nc(NCc2ccc(F)cc2)nc(Nc2cccc(C(F)(F)F)c2)n1
13 | 29 to 31 °C | CCNc1nc(NCCN2CCCC2)nc(Nc2ccc(OC)cc2)n1 (as salt: hydrochloride)

From US20120009151A1, “Triazines And Related Compounds Having Antiviral Activity, Compositions And Methods Thereof” (priority 2007, published 2012)
